Reference: publication PMC3309038 (Bioorganic & medicinal chemistry letters, 2012)

Legend:
in vitro = in vitro ADME; details: rat, microsomes, pH 7.4
[1] = Microsomal stability assay, human liver microsomes; assay type: in vitro ADME; details: pH 7.4
TZM-bl cells = details: read-out: CC50, cytotoxicity to 50% of cells, published previously; cited from earlier work
wild-type HIV-1 NL4-3 = assay: Anti-HIV activity against wild-type HIV-1 NL4-3 infection of TZM-bl cells; assay type: cell-based; details: HIV-1 NL4-3 wild-type

| Structure (SMILES) | microsomal CLint at 1 μM (in vitro) [µL/min/mg] | microsomal CLint at 1 μM [1] [µL/min/mg] | CC50 (TZM-bl cells) [µM] | Selectivity index (SI), ratio of CC50/EC50 (wild-type HIV-1 NL4-3) |
| --- | --- | --- | --- | --- |
| Cc1cc(/C=C/C#N)cc(C)c1Nc1ccnc(Nc2ccc(C#N)cc2)n1 [Compound 2, rilpivirine] | 57 | 200 |  |  |
| Cc1cc(/C=C/C#N)cc(C)c1Oc1cc(Nc2ccc(C#N)cc2)c(N)cc1[N+](=O)[O-] [Compound 3] | 50 | 150 | > 47.1 |  |
| COC(=O)c1cc(N)c(Nc2ccc(C#N)cc2)cc1Oc1c(C)cc(/C=C/C#N)cc1C [Compound 9a] |  |  |  | >8465 |
| Cc1cc(/C=C/C#N)cc(C)c1Oc1cc(Nc2ccc(C#N)cc2)c(N)cc1C(N)=O [Compound 9c] | 57 | 200 |  |  |
| Cc1cc(/C=C/C#N)cc(C)c1Oc1cc(Nc2ccc(C#N)cc2)c(N)cc1CO [Compound 9e] |  | 230 |  |  |
